The text below walks through data of US20080255106A1, “Novel 2-Phenyl-Imidazo[4,5-B]Pyridine Derivatives as Inhibitors of Glycogen Synthase Kinase for the Treatment of Dementia and Neurodegenerative Disorders” (AstraZeneca AB, priority 2005, published 2008).

Where a name gives a salt, the structure may show the parent alone.

The assay addresses T1, GSK3β (Homo sapiens, UniProt P49841).
T1 construct: purchased Dundee University, UK
The assay can be described thus: GSK3β Scintillation Proximity Assay (ATP competition). Particulars: recombinant human GSK3β, SPA, 1 μM ATP, Km of ATP 20 μM used to calculate Ki. Format: biochemical. On the procedure: Determination of ATP Competition in Scintillation Proximity GSK3β Assay.
GSK3β Scintillation Proximity Assay.
The competition experiments were carried out in duplicate with 10 different concentrations of the inhibitors in clear-bottom microtiter plates (Wallac, Finland). A biotinylated peptide substrate, Biotin-Ala-Ala-Glu-Glu-Leu-Asp-Ser-Arg-Ala-Gly-Ser(PO3H2)-Pro-Gln-Leu (AstraZeneca, Lund), was added at a final concentration of 1 μM in an assay buffer containing 1 mU recombinant human GSK30 (Dundee University, UK), 12 mM morpholinepropanesulfonic acid (MOPS), pH 7.0, 0.3 mM EDTA, 0.01% β-mercaptoethanol, 0.004% Brij 35 (a […] detergent), 0.5% glycerol and 0.5 μg BSA/25 μl. The reaction was initiated by the addition of 0.04 μCi [γ-^33P]ATP (Amersham, UK) and unlabelled ATP at a final concentration of 1 μM and assay volume of 25 μl. After incubation for 20 minutes at room temperature, each reaction was terminated by the addition of 25 μl stop solution containing 5 mM EDTA, 50 μM ATP, 0.1% Triton X-100 and 0.25 mg streptavidin coated Scintillation Proximity Assay (SPA) beads (Amersham, UK). After 6 hours the radioactivity was determined in a liquid scintillation counter (1450 MicroBeta Trilux, Wallac). The inhibition curves were analysed by non-linear regression using GraphPad Prism, USA. The Km value of ATP for GSK3, used to calculate the inhibition constants (Ki) of the various compounds, was 20 μM.

T1 sequence (P49841 whole entry): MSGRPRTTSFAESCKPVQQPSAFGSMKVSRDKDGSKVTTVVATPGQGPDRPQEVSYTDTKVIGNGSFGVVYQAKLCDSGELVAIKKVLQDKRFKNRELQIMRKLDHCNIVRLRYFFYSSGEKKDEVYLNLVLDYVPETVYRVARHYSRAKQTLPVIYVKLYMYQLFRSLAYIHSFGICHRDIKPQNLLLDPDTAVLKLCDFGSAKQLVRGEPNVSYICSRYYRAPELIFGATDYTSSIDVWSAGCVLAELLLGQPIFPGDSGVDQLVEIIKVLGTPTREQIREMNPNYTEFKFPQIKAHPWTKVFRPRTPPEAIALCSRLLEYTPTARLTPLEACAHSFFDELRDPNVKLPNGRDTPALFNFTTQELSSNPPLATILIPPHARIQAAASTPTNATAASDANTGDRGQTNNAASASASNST

`COCCCNC(=O)c1ccnc2[nH]c(-c3ccc(C(F)(F)F)cc3)nc12` [Example 3, N-(3-Methoxypropyl)-2-[4-(trifluoromethyl)phenyl]-3H-imidazo[4,5-b]pyridine-7-carboxamide hydrochloride]: the inhibitory constant (Ki) was 0.017 µM.

As to `COCCCNC(=O)c1ccnc2[nH]c(-c3cccc(COCC(F)(F)C(F)F)c3)nc12` [Example 4, N-(3-Methoxypropyl)-2-{3-[(2,2,3,3-tetrafluoropropoxy)methyl]phenyl}-3H-imidazo[4,5-b]pyridine-7-carboxamide hydrochloride], the Ki was 0.008 µM.

For `COCCCNC(=O)c1ccnc2[nH]c(-c3ccc(C(=O)N4CCN(C)CC4)cc3)nc12` [Example 6, N-(3-Methoxypropyl)-2-{4-[(4-methylpiperazin-1-yl)carbonyl]phenyl}-3H-imidazo[4,5-b]pyridine-7-carboxamide hydrochloride], the inhibitory constant (Ki) is 0.051 µM.

Turning to `COCCCNC(=O)c1ccnc2[nH]c(-c3ccc(C(=O)N4CCOCC4)cc3)nc12` [Example 7, N-(3-Methoxypropyl)-2-[4-(morpholin-4-ylcarbonyl)phenyl]-3H-imidazo[4,5-b]pyridine-7-carboxamide hydrochloride], the Ki was 0.036 µM.
